In brackets after ≈: the same amount, converted by molar mass. Read-outs that look alike come from different tables or passages of the source.
How the values were obtained:
[1] = tested on: Acinetobacter baumannii ATCC 17978; test: Mouse thigh infection model; format: in vivo, BALB/c mice; details: for Mean Change log CFU/g thigh 72 hr / Mean Change log CFU/g thigh 24 hr: vs. time 0 control; for Mean Log CFU/g thigh 72 hr: 72 hr treatment; for Mean Log CFU/g thigh 24 hr: 24 hr treatment; for efficacy in words, thigh model summary: 24 hr and 72 hr treatment
Procedure: (§1) Groups of 5 female specific-pathogen-free BALB/c mice weighing 18±2 g were used. In the 24 hr model (bacterial counts determined 24 hr after treatment start), mice were rendered neutropenic with cyclophosphamide intraperitoneal (IP) administration conducted at Days −4 (150 mg/kg), and day −1 (100 mg/kg). In the 72 hr model (bacterial counts determined 72 hr after treatment start), animals were rendered persistently neutropenic for the duration of the infection period with cyclophosphamide intraperitoneal (IP) administration conducted at Days −4 (150 mg/kg), −1 (100 mg/kg) and +1 (100 mg/kg). Persistent neutropenia is required to prevent pathogen clearance from thigh tissue in the 74 hr model. Nutritional supplementation (diet gel) plus saline SC injections were provided daily to help animals tolerate the cyclophosphamide treatment.
(§2) On day 0, animals were inoculated intramuscularly (0.1 ml/thigh) with a 1.67×10^4 inoculum count of Acinetobacter baumannii ATCC 17978. Vehicle control (40% Captisol), positive control (tigecycline) or test substances were then administered 2 hr post infection by the subcutaneous (SC) route of administration. Each dosing group consisted of 5 female mice. The MICs of the compounds against the test strain were 8 μg/ml, 2 μg/ml and […] for compound 201, compound 71 and compound 200, respectively. At 26 or 74 hours after inoculation (24 or 72 hr after treatment initiation), animals were euthanized with CO2 asphyxiation and the thigh tissue harvested from each of the test animals. The tissues were homogenized in 3 mL of PBS, pH 7.4 with a homogenizer. Homogenates, 0.1 mL, were used for serial 10-fold dilutions and plated onto NB agar for colony counts. Efficacy is calculated as the change in log CFU/g thigh vs. the time 0 (treatment initiation) control.

[2] = tested on: Acinetobacter baumannii ATCC 17978; test: MIC against the in vivo test strain; format: cell-based; details: A. baumannii ATCC 17978; for MIC: Acinetobacter baumannii, ATCC17978
Procedure: (§3) The antibacterial activity of FabI inhibitors against select Gram-negative and Gram-positive bacterial species including susceptible and multi-drug resistant A. baumannii, E. coli, K. pneumoniae and S. aureus was tested using the broth microdilution Minimal Inhibitory Concentration (MIC) assay following CLSI guidelines for insoluble compounds. Test articles were serially diluted 2-fold in 100% dimethyl sulfoxide (DMSO) and then diluted 100-fold into cation adjusted Mueller-Hinton broth (CA-MHB) to achieve a 10-point test concentration range in 1% DMSO. Final compound concentrations were 0.016-8 μg/ml for S. aureus or 0.06-32 μg/ml for the Gram-negative species. MIC test plates were then prepared by transferring 100 μl of the final assay medium (test article in CA-MHB, 1% DMSO) into the appropriate wells of a sterile, low binding 96-well polystyrene plate. Direct colony suspension inoculums of the test strains were freshly prepared per CLSI guidelines, and the appropriate test wells were inoculated to achieve a final bacterial cell density of 5×10^5 CFU/ml. Growth control (no test article) and negative control (no bacterial inoculum) wells were also included. Exposure to light was minimized during all stages of assay preparation. […] Bacterial growth was then determined by measuring the optical density at 600 nm (OD600) using a SpectraMax Plus plate-reader spectrophotometer.
as §2
On day 0, animals were anesthetized with etomidate-lipuro emulsion (20 mg/10 mL; 20 mg/kg dose, IV) and then inoculated intranasally with an A. baumannil ATCC 17978 suspension, 1.36×10^5 CFU/mouse, 0.02 mL/mouse. […] Efficacy is calculated as the change in log CFU/g thigh vs. the time 0 (treatment initiation) control.

[3] = tested on: S. aureus ATCC 29213; test: Broth microdilution MIC assay; format: cell-based; details: Staphylococcus aureus, ATCC29213; CA-MHB, 35° C., 20 hours
Procedure: as §3

[4] = tested on: K. pneumoniae A6030827; test: Broth microdilution MIC assay; format: cell-based; details: Klebsiella pneumoniae, CA-MHB, 35° C., 20 hours
Procedure: as §3

[5] = tested on: A. baumannii ATCC BAA1605; test: Broth microdilution MIC assay; format: cell-based; details: Acinetobacter baumannii, ATCCBAA1605; CA-MHB, 35° C., 20 hours
Procedure: as §3

[6] = tested on: E. coli AG100; test: Broth microdilution MIC assay; format: cell-based; details: Escherichia coli, CA-MHB, 35° C., 20 hours
Procedure: as §3

[7] = target: FabI enzyme from Acinetobacter baumannii (Acinetobacter baumannii, UniProt D0CAD5); test: Inhibition of FabI enzyme, rate of NADH consumption; format: biochemical
Procedure: Inhibition of FabI enzyme from Acinetobacter baumannii and Escherichia coli was tested by measuring the rate of NADH consumption (Δabsorbance at 340 nm/min) at 30° C. in 96-well plate format using an automated plate reader in the presence or absence of the test compounds. The assay mixture contained 100 mM Tris-HCl, pH 7.25 (A. baumannii) or 7.5 (E. coli), 100 mM ammonium acetate, 0.02% (A. baumannii) or 0.05% (E. coli) Pluronic F-68, 25 μM crotonyl ACP, 50 μM NADH, 25 pM (A. baumannii) or 50 pM (E. coli) recombinant FabI protein, and 7.5% DMSO. Test compounds were added at concentrations ranging from 0.17 to 10,000 nM in a final well volume of 100 μl. This dose-response inhibitory assay was performed using a 10-point, serial dilution series for each test compound. IC50 values for each test compound were assigned from logistical sigmoid curve-fitting of the inhibition dose response curves.

[8] = tested on: A. baumannil ATCC 17978; test: Mouse lung infection model; format: in vivo, BALB/c mice; details: for Mean change log CFU/g lung 24 hr / Mean change log CFU/g lung 72 hr: vs. time 0 control; for Mean Log CFU/g lung 24 hr: 24 hr treatment; for Mean Log CFU/g lung 72 hr: 72 hr treatment
Procedure: as §1, with “lung” for “thigh”
On day 0, animals were anesthetized with etomidate-lipuro emulsion (20 mg/10 mL; 20 mg/kg dose, IV) and then inoculated intranasally with an A. baumannil ATCC 17978 suspension, 1.36×10^5 CFU/mouse, 0.02 mL/mouse. Vehicle control (40% Captisol), positive control (tigecycline) or test substances were then administered 2 hr post infection by the subcutaneous (SC) route of administration. Each dosing group consisted of 5 female mice. The MICs of the compounds against the test strain were 8 μg/ml and 0.5 μg/ml for compound 201 and compound 200, respectively. At 26 or 74 hours after inoculation (24 or 72 hr after treatment initiation), animals were euthanized with CO2 asphyxiation and the lung tissue harvested from each of the test animals. The tissues were homogenized in 1 ml of PBS, pH 7.4 with a homogenizer. Homogenates, 0.1 mL, were used for serial 10-fold dilutions and plated onto MacConkey II agar for colony counts. Efficacy is calculated as the change in log CFU/g […] vs. the time 0 (treatment initiation) control.

[9] = 25 mg/kg q6h SC, total daily dose 100 mg/kg
[10] = 50 mg/kg q6h SC, total daily dose 200 mg/kg
[11] = following both 24 hr and 72 hr treatment, SC

FabI enzyme from Acinetobacter baumannii, sequence (D0CAD5 entry or part of it): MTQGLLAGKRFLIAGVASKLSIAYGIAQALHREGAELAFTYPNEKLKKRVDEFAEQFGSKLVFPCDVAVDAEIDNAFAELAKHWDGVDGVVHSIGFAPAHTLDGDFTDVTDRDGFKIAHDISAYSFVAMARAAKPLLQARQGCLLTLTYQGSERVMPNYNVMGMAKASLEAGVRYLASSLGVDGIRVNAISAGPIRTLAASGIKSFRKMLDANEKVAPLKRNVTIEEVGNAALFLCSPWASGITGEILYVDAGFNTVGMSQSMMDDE

Question: What does the source list for `Cc1c(CN(C)C(=O)/C=C/c2cnc3c(c2)CC[C@H](N)C(=O)N3)oc2ccccc12.Cl` (single isomer, unassigned) [Compound 71]?
Answer: Mean Change log CFU/g thigh 72 hr ([1]; 25 mg/kg q6h SC): 2.25 log CFU/g thigh; Mean Log CFU/g thigh 72 hr [1, 9]: 7.09 log CFU/g thigh; Mean Change log CFU/g thigh 24 hr ([1]; 50 mg/kg q6h SC): 0.60 log CFU/g thigh; Mean Change log CFU/g thigh 72 hr ([1]; 50 mg/kg q6h SC): 1.10 log CFU/g thigh; Mean Log CFU/g thigh 24 hr [1, 10]: 5.45 log CFU/g thigh; Mean Log CFU/g thigh 72 hr [1, 10]: 5.95 log CFU/g thigh; efficacy in words, thigh model summary ([1]; SC): very slight efficacy; MIC [2]: 2 µg/mL; MIC [3]: ≤ 4 µg/mL; MIC [4]: ≤ 4 µg/mL; MIC [5]: ≤ 4 µg/mL; MIC [6]: ≤ 4 µg/mL

Question: With `Cc1oc2ccccc2c1CN(C)C(=O)/C=C/c1cnc2c(c1)CC[C@H](N)C(=O)N2` [Compound 200, (S,E)-3-(7-amino-8-oxo-6,7,8,9-tetrahydro-5H-pyrido[2,3-b]azepin-3-yl)-N-methyl-N-((2-methylbenzofuran-3-yl)methyl)acrylamide] as the molecule, how does the “Mean Change log CFU/g thigh 72 hr” value ([1]; 25 mg/kg q6h SC) read?
Answer: −2.27 log CFU/g thigh

Question: What about the “Mean Log CFU/g thigh 72 hr” value [1, 9] of the same molecule?
Answer: 2.58 log CFU/g thigh

Question: What about the “Mean Change log CFU/g thigh 24 hr” value ([1]; 50 mg/kg q6h SC) of the same molecule?
Answer: −2.53 log CFU/g thigh

Question: What about the “Mean Change log CFU/g thigh 72 hr” value ([1]; 50 mg/kg q6h SC) of the same molecule?
Answer: −2.14 log CFU/g thigh

Question: And the “Mean Log CFU/g thigh 24 hr” value [1, 10]?
Answer: 2.31 log CFU/g thigh

Question: What about the “Mean Log CFU/g thigh 72 hr” value [1, 10] of the same molecule?
Answer: 2.71 log CFU/g thigh

Question: And the “efficacy (log kill), thigh model” value [1, 11]?
Answer: 2.1-2.4 log kill

Question: What about the IC50 ([7]; recombinant FabI, 30° C., pH 7.25, read-out: A. baumannii Fabl IC50) of the same molecule?
Answer: < 10 nM

Question: What about the MIC against the test strain [2] of the same molecule?
Answer: 0.5 µg/mL (≈ 1.24 µM)

Question: And the MIC [2]?
Answer: 0.5 µg/mL (≈ 1.24 µM)

Question: What about the “Mean change log CFU/g lung 24 hr” value ([8]; 25 mg/kg q6h SC) of the same molecule?
Answer: −2.44 log CFU/g lung

Question: And the “Mean change log CFU/g lung 72 hr” value ([8]; 25 mg/kg q6h SC)?
Answer: −2.21 log CFU/g lung

Question: And the “Mean Log CFU/g lung 24 hr” value [8, 9]?
Answer: 3.86 log CFU/g lung

Question: And the “Mean Log CFU/g lung 72 hr” value [8, 9]?
Answer: 4.09 log CFU/g lung

Question: And the “Mean change log CFU/g lung 24 hr” value ([8]; 50 mg/kg q6h SC)?
Answer: −3.50 log CFU/g lung

Question: What about the “Mean change log CFU/g lung 72 hr” value ([8]; 50 mg/kg q6h SC) of the same molecule?
Answer: −3.39 log CFU/g lung

Question: And the “Mean Log CFU/g lung 24 hr” value [8, 10]?
Answer: 2.80 log CFU/g lung

Question: And the “Mean Log CFU/g lung 72 hr” value [8, 10]?
Answer: 2.91 log CFU/g lung

Question: What about the “efficacy (log kill), lung model” value [8, 11] of the same molecule?
Answer: 2.5-3.5 log kill

Question: And the MIC [3]?
Answer: ≤ 4 µg/mL

Question: And the MIC [5]?
Answer: ≤ 4 µg/mL

Question: What about the MIC [6] of the same molecule?
Answer: ≤ 4 µg/mL

Question: Which “Mean Change log CFU/g thigh 72 hr” value ([1]; 25 mg/kg q6h SC) does the source give for `Cc1c(CN(C)C(=O)/C=C/c2cnc3c(c2)CC(N)C(=O)N3)oc2ccccc12.Cl` (stereo not drawn) [Compound 201, (E)-3-(6-amino-7-oxo-5,6,7,8-tetrahydro-1,8-naphthyridin-3-yl)-N-methyl-N-((3-methylbenzofuran-2-yl)methyl)acrylamide hydrochloride, reference compound] here?
Answer: 2.24 log CFU/g thigh

Question: And the “Mean Log CFU/g thigh 72 hr” value [1, 9]?
Answer: 7.09 log CFU/g thigh

Question: What about the “Mean Change log CFU/g thigh 24 hr” value ([1]; 50 mg/kg q6h SC) of the same molecule?
Answer: 2.26 log CFU/g thigh

Question: And the “Mean Change log CFU/g thigh 72 hr” value ([1]; 50 mg/kg q6h SC)?
Answer: 1.86 log CFU/g thigh

Question: What about the “Mean Log CFU/g thigh 24 hr” value [1, 10] of the same molecule?
Answer: 7.11 log CFU/g thigh

Question: What about the “Mean Log CFU/g thigh 72 hr” value [1, 10] of the same molecule?
Answer: 6.70 log CFU/g thigh

Question: And the “efficacy in words, thigh model summary” value ([1]; SC)?
Answer: no efficacy

Question: What about the IC50 [7] of the same molecule?
Answer: 19 nM

Question: And the MIC [2]?
Answer: 8 µg/mL

Question: What about the “Mean change log CFU/g lung 24 hr” value ([8]; 25 mg/kg q6h SC) of the same molecule?
Answer: 1.02 log CFU/g lung

Question: What about the “Mean change log CFU/g lung 72 hr” value ([8]; 25 mg/kg q6h SC) of the same molecule?
Answer: 0.21 log CFU/g lung

Question: And the “Mean Log CFU/g lung 24 hr” value [8, 9]?
Answer: 7.32 log CFU/g lung

Question: And the “Mean Log CFU/g lung 72 hr” value [8, 9]?
Answer: 6.51 log CFU/g lung

Question: What about the “Mean change log CFU/g lung 24 hr” value ([8]; 50 mg/kg q6h SC) of the same molecule?
Answer: 0.26 log CFU/g lung

Question: And the “Mean change log CFU/g lung 72 hr” value ([8]; 50 mg/kg q6h SC)?
Answer: −0.35 log CFU/g lung

Question: What about the “Mean Log CFU/g lung 24 hr” value [8, 10] of the same molecule?
Answer: 6.56 log CFU/g lung

Question: What about the “Mean Log CFU/g lung 72 hr” value [8, 10] of the same molecule?
Answer: 5.95 log CFU/g lung

Question: And the “efficacy in words, lung model summary” value ([8]; SC, 24 hr and 72 hr treatment)?
Answer: very slight efficacy

Question: What about the MIC [5] of the same molecule?
Answer: 16 µg/mL

Question: What about the MIC [6] of the same molecule?
Answer: 8 µg/mL

Source: US12473283B2, “Compounds and their use” (Debiopharm International S.A., priority 2019, dated 2025)
